In ChEMBL document CHEMBL3046025, “Fungitoxic Properties of N-Phenylformamidoximes in Control of Benzimidazole-Resistant Isolates of Fungi” (1992):
The source made the active and inactive calls.

Key:
[1] = system: Botrytis cinerea; experiment: Antifungal activity against Benzimidalzole-resistant Botryotinia fuckeliana isolate Bc-44 infected kidney bean leaves at 12.5 ppm treated as foliar application followed by incubation for 7 days in green house condition; type: functional
[2] = system: Botrytis cinerea; experiment: Antifungal activity against Benzimidalzole-resistant Botryotinia fuckeliana isolate Bc-44 infected kidney bean leaves at 50 ppm treated as foliar application followed by incubation for 7 days in green house condition; type: functional
[3] = system: Botrytis cinerea; experiment: Antifungal activity against Benzimidalzole-resistant Botryotinia fuckeliana isolate Bc-44 infected kidney bean leaves at 200 ppm treated as foliar application followed by incubation for 7 days in green house condition; type: functional
[4] = system: Cercospora beticola; experiment: Antifungal activity against Benzimidalzole-resistant Cercospora beticola isolate Cb-19 infected in sugar beet seedlings at 12.5 ppm treated as foliar application 7 days prior to inoculation; type: functional
[5] = system: Cercospora beticola; experiment: Antifungal activity against Benzimidalzole-resistant Cercospora beticola isolate Cb-19 infected in sugar beet seedlings at 50 ppm treated as foliar application 7 days prior to inoculation; type: functional
[6] = system: Cercospora beticola; experiment: Antifungal activity against Benzimidalzole-resistant Cercospora beticola isolate Cb-19 infected in sugar beet seedlings at 200 ppm treated as foliar application 7 days prior to inoculation; type: functional
[7] = system: Cercospora beticola; experiment: Antifungal activity against Benzimidalzole-resistant Cercospora beticola isolate Cb-19 infected in sugar beet seedlings at 3.1 ppm 24 hr-post inoculation; type: functional
[8] = system: Cercospora beticola; experiment: Antifungal activity against Benzimidalzole-resistant Cercospora beticola isolate Cb-19 infected in sugar beet seedlings at 50 ppm 24 hr-post inoculation; type: functional
[9] = system: Cercospora beticola; experiment: Antifungal activity against Benzimidalzole-resistant Cercospora beticola isolate Cb-19 infected in sugar beet seedlings at 200 ppm 24 hr-post inoculation; type: functional
[10] = system: Botrytis cinerea; experiment: Antifungal activity against Benzimidalzole-resistant Botryotinia fuckeliana isolate Bc-44 infected kidney bean leaves at 50 ppm applied as soil drench 3 days prior to inoculation; type: functional
[11] = system: Botrytis cinerea; experiment: Antifungal activity against Benzimidalzole-sensitive Botryotinia fuckeliana isolate Bc-9 infected compound-treated kidney bean leaves at 50 ppm after 4 days; type: functional
[12] = system: Botrytis cinerea; experiment: Antifungal activity against Benzimidalzole-sensitive Botryotinia fuckeliana isolate Bc-9 infected compound-treated kidney bean leaves at 200 ppm after 4 days; type: functional
[13] = system: Botrytis cinerea; experiment: Ratio of EC50 for Benzimidalzole-resistant Botryotinia fuckeliana isolate Bc-40 to EC50 for Benzimidalzole-resistant Botryotinia fuckeliana isolate Bc-31; type: functional
[14] = system: Botrytis cinerea; experiment: Ratio of EC50 for Benzimidalzole-resistant Botryotinia fuckeliana isolate Bc-20 to EC50 for Benzimidalzole-resistant Botryotinia fuckeliana isolate Bc-44; type: functional
[15] = system: Botrytis cinerea; experiment: Ratio of EC50 for Benzimidalzole-sensitive Botryotinia fuckeliana isolate Bc-9 to EC50 for Benzimidalzole-resistant Botryotinia fuckeliana isolate Bc-44; type: functional
[16] = system: Botrytis cinerea; experiment: Antifungal activity against Benzimidalzole-resistant Botryotinia fuckeliana isolate Bc-44 infected compound-treated kidney bean leaves at 12.5 ppm after 4 days; type: functional
[17] = system: Botrytis cinerea; experiment: Antifungal activity against Benzimidalzole-resistant Botryotinia fuckeliana isolate Bc-44 infected compound-treated kidney bean leaves at 50 ppm after 4 days; type: functional
[18] = system: Botrytis cinerea; experiment: Antifungal activity against Benzimidalzole-resistant Botryotinia fuckeliana isolate Bc-44 infected compound-treated kidney bean leaves at 200 ppm after 4 days; type: functional
[19] = system: Cercospora beticola; experiment: Antifungal activity against Benzimidalzole-resistant Cercospora beticola isolate Cb-19 infected in sugar beet seedlings at 200 ppm applied as soil drench 3 days prior to inoculation; type: functional
[20] = system: Botrytis cinerea; experiment: Antifungal activity against Benzimidalzole-resistant Botryotinia fuckeliana isolate Bc-31 at 0.001 to 1000 ppm after 3 days by agar dilution method; type: functional, organism-based
[21] = system: Cercospora beticola; experiment: Ratio of EC50 for […] to EC50 for Benzimidalzole-resistant Cercospora beticola isole 28-8; type: functional
[22] = system: Cercospora beticola; experiment: Ratio of EC50 for […] to EC50 for Benzimidalzole-resistant Cercospora beticola isole Cb-19; type: functional
[23] = system: Botrytis cinerea; experiment: Antifungal activity against Benzimidalzole-resistant Botryotinia fuckeliana isolate Bc-44 at 0.001 to 1000 ppm after 3 days by agar dilution method; type: functional, organism-based
[24] = system: Cercospora beticola; experiment: Ratio of EC50 for Benzimidalzole-resistant Cercospora beticola isolate 18-11 to EC50 for Benzimidalzole-resistant Cercospora beticola isolate 18-2; type: functional
[25] = system: Cercospora beticola; experiment: Ratio of EC50 for Benzimidalzole-resistant Cercospora beticola isolate 18-11 to EC50 for Benzimidalzole-resistant Cercospora beticola isolate 1-3; type: functional
[26] = system: Cercospora beticola; experiment: Ratio of EC50 for Benzimidalzole-resistant Cercospora beticola isolate 18-11 to EC50 for Benzimidalzole-resistant Cercospora beticola isole Cb-19; type: functional
[27] = system: Cercospora beticola; experiment: Ratio of EC50 for Benzimidalzole-resistant Cercospora beticola isolate 6-13 to EC50 for Benzimidalzole-resistant Cercospora beticola isolate 49-4; type: functional
[28] = system: Cercospora beticola; experiment: Ratio of EC50 for Benzimidalzole-resistant Cercospora beticola isolate 6-13 to EC50 for Benzimidalzole-resistant Cercospora beticola isolate 18-2; type: functional
[29] = system: Cercospora beticola; experiment: Ratio of EC50 for Benzimidalzole-resistant Cercospora beticola isolate 6-13 to EC50 for Benzimidalzole-resistant Cercospora beticola isole Cb-19; type: functional
[30] = system: Cercospora beticola; experiment: Antifungal activity against Benzimidalzole-resistant Cercospora beticola isolate 18-11 at 0.001 to 1000 ppm after 14 days by agar dilution method; type: functional, organism-based
[31] = system: Cercospora beticola; experiment: Antifungal activity against Benzimidalzole-sensitive Cercospora beticola isolate 24-3 at 0.001 to 1000 ppm after 14 days by agar dilution method; type: functional, organism-based
[32] = system: Cercospora beticola; experiment: Antifungal activity against Benzimidalzole-sensitive Cercospora beticola isolate 18-1 at 0.001 to 1000 ppm after 14 days by agar dilution method; type: functional, organism-based
[33] = system: Cercospora beticola; experiment: Antifungal activity against Benzimidalzole-resistant Cercospora beticola isolate 28-8 at 0.001 to 1000 ppm after 14 days by agar dilution method; type: functional, organism-based
[34] = system: Cercospora beticola; experiment: Antifungal activity against Benzimidalzole-sensitive Cercospora beticola isolate 18-1 infected in compound-treated sugar beet seedlings at 200 ppm after 12 days; type: functional
[35] = system: Cercospora beticola; experiment: Ratio of EC50 for Benzimidalzole-sensitive Cercospora beticola isolate 24-3 to EC50 for Benzimidalzole-resistant Cercospora beticola isole 28-8; type: functional
[36] = system: Cercospora beticola; experiment: Ratio of EC50 for Benzimidalzole-sensitive Cercospora beticola isolate 22-5 to EC50 for Benzimidalzole-resistant Cercospora beticola isolate 1-3; type: functional
[37] = system: Cercospora beticola; experiment: Ratio of EC50 for Benzimidalzole-sensitive Cercospora beticola isolate 18-1 to EC50 for Benzimidalzole-resistant Cercospora beticola isolate 18-2; type: functional
[38] = system: Cercospora beticola; experiment: Ratio of EC50 for Benzimidalzole-sensitive Cercospora beticola isolate 18-1 to EC50 for Benzimidalzole-resistant Cercospora beticola isole Cb-19; type: functional
[39] = system: Botrytis cinerea; experiment: Antifungal activity against Benzimidalzole-resistant Botryotinia fuckeliana isolate Bc-44 infected kidney bean leaves at 12.5 ppm 24 hr post-infection measured after 3 days; type: functional
[40] = system: Cercospora beticola; experiment: Antifungal activity against Benzimidalzole-resistant Cercospora beticola isolate 18-2 infected in compound-treated sugar beet seedlings at 12.5 ppm after 12 days; type: functional
[41] = system: Cercospora beticola; experiment: Antifungal activity against Benzimidalzole-resistant Cercospora beticola isolate 18-2 infected in compound-treated sugar beet seedlings at 200 ppm after 12 days; type: functional
[42] = system: Cercospora beticola; experiment: Antifungal activity against Benzimidalzole-resistant Cercospora beticola isolate Cb-19 infected in compound-treated sugar beet seedlings at 50 ppm after 12 days; type: functional
[43] = system: Botrytis cinerea; experiment: Antifungal activity against Benzimidalzole-resistant Botryotinia fuckeliana isolate Bc-44 infected compound-treated kidney bean leaves at 3.1 ppm after 4 days; type: functional

C#CCOc1c(Cl)cc(N/C=N/OC)cc1Cl
8%: Activity [12]
53%: Activity [1]
95%: Activity [43]
active: Activity [20] | Activity [23] | Activity [33]
> 1000: Ratio EC50 [13] | Ratio EC50 [14] | Ratio EC50 [15] | Ratio EC50 [21] | Ratio EC50 [22] | Ratio EC50 [24] | Ratio EC50 [25] | Ratio EC50 [26] | Ratio EC50 [27] | Ratio EC50 [28] | Ratio EC50 [29] | Ratio EC50 [35] | Ratio EC50 [36] | Ratio EC50 [37] | Ratio EC50 [38]
98%: Activity [8]
100%: Activity [2] | Activity [3] | Activity [6] | Activity [9] | Activity [16] | Activity [17] | Activity [18] | Activity [41] | Activity [42]
5%: Activity [11]
99%: Activity [5]
72%: Activity [19]
0%: Activity [10] | Activity [34]
44%: Activity [7]
inactive: Activity [30] | Activity [31] | Activity [32]
93%: Activity [4] | Activity [39]
94%: Activity [40]

C#CCOc1cc(N/C=N/OC)cc(Cl)c1OCC#C
> 1000: Ratio EC50 [13] | Ratio EC50 [14] | Ratio EC50 [15] | Ratio EC50 [21] | Ratio EC50 [22] | Ratio EC50 [24] | Ratio EC50 [25] | Ratio EC50 [26] | Ratio EC50 [27] | Ratio EC50 [28] | Ratio EC50 [29] | Ratio EC50 [35] | Ratio EC50 [36] | Ratio EC50 [37] | Ratio EC50 [38]
94%: Activity [19]
100%: Activity [3] | Activity [5] | Activity [6] | Activity [8] | Activity [9] | Activity [16] | Activity [17] | Activity [18] | Activity [39] | Activity [40] | Activity [41] | Activity [42] | Activity [43]
90%: Activity [2]
active: Activity [20] | Activity [23] | Activity [33]
80%: Activity [4]
6%: Activity [10]
inactive: Activity [30] | Activity [31] | Activity [32]
54%: Activity [7]
0%: Activity [11] | Activity [34]
7%: Activity [12]
63%: Activity [1]
